From patent publication US12502435B2, “Metastatic brain tumor targeting peptides” (H. Lee Moffitt Cancer Center and Research Institute, Inc., priority 2018, dated 2025)

Tests used:
[1] = system: Lung Cancer Brain Metastases cells; experiment: peptide binding to lung cancer brain metastases cells (FIGS. 3, 5, 7B); details: MH1002
[2] = system: non-malignant brain cells; experiment: peptide binding to non-malignant brain cells (FIGS. 3, 5, 7A)
[3] = system: Lung Cancer Brain Metastases Cells (MH1002, MH1016, H1915); experiment: flow cytometry binding of peptide to lung cancer brain metastases cells; details: compared to primary lung cancer cells and non-targeting peptides
Excerpt: FIGS. 2A to 2C show binding of BRDT (LBM1) peptide applied to Primary Lung Cancer Cells, Non Malignant Brain Cells, Lung Cancer Brain Metastases Cells (MH1002, MH1016, H1915) analyzed through flow cytometry.
FIGS. 4A to 4C show binding of LBM2 peptide applied to Primary Lung Cancer Cells, Non Malignant Brain Cells, Lung Cancer Brain Metastases Cells (MH1002, MH1016, H1915) analyzed through flow cytometry.
FIGS. 6A to 6C show binding AMOT (LBM4) peptide applied to Primary Lung Cancer Cells, Non Malignant Brain Cells, Lung Cancer Brain Metastases Cells (MH1002, MH1016, H1915) analyzed through flow cytometry.
For each peptide, as the concentration of peptide goes up, there was a right shift indicating binding to the brain met cells, with minimal binding to the lung cancer primary cells, showing specificity of binding to the brain mets over the lung cancer.

[4] = system: Primary Lung Cancer Cells; experiment: peptide binding to primary lung cancer cells (FIGS. 3, 5, 7A)

Row | Sequence | binding to Lung Cancer Brain Metastases cells [1] | binding to non-malignant brain cells [2] | flow cytometry shift with peptide applied to lung cancer BM cells [3] | binding to primary lung cancer cells [4]
1 | TLGLRPVPVATT [LBM2] | positive binding | no binding | right shift | no binding
2 | SYPSNALSLHKY [LBM1] | positive binding | no binding | right shift | no binding
